Measured values taken from BindingDB's records for doi:10.1016/j.ejmech.2021.113704 (Fudan University, 2021).

Test: Agonist activity at RORgammat in mouse CD4+ T cells assessed as induction of Th17 cells differentiation by measuring increase in IL17 production measured after 4 days by intracellular staining based flow cytometry

EC50: 0.037 µM
SMILES: CCCN(Cc1ccc(NC(=O)Cc2ccc(S(C)(=O)=O)cc2)cc1Cl)CC1CCCCC1
